Results from paper PMC10254170, “Diastereoselective Synthesis of the Borylated D-Galactose Monosaccharide 3-Boronic-3-Deoxy-D-Galactose and Biological Evaluation in Glycosidase Inhibition and in Cancer for Boron Neutron Capture Therapy (BNCT)” (Molecules, 2023).
Read-outs that look alike come from different tables or passages of the source.

Legend:
[1] = target: T1, bovine liver β-glucuronidase (Bos taurus, UniProt A3KMY8); test: Glycosidase inhibition, bovine liver β-glucuronidase; type: biochemical
T1 construct: purchased Sigma-Aldrich Co; host or cells: bovine liver
T1 sequence (A3KMY8 1-652): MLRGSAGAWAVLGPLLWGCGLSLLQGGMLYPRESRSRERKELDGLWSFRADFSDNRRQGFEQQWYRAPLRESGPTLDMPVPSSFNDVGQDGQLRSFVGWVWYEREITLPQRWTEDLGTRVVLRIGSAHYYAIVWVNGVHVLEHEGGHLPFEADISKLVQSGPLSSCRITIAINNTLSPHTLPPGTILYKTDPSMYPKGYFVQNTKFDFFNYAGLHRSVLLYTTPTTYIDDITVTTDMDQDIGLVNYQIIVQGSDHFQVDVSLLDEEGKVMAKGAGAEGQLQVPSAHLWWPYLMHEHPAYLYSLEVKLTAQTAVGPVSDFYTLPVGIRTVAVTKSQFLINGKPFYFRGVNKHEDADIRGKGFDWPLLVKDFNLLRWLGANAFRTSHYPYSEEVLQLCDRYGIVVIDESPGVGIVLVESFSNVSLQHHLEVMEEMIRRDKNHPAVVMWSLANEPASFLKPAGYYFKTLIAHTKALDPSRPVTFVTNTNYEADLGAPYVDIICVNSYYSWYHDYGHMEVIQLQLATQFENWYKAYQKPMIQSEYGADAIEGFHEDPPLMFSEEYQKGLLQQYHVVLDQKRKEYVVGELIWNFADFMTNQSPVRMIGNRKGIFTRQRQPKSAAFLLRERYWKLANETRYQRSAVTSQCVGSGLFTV
Text: Glycosidase modulation studies need to explore selectivity as well as potency. Our drugs and controls are therefore screened against a panel of glycosidases in methanol (Table 1) to identify the glycosidase-related disease area(s), selectivity profile, and potency of biological action for each drug. The presence of organic boron covalently bonded to the drug structure also grants a reduced toxicity profile. Following the glycosidase inhibition range recommendations, an IC50 value >250 μm denotes weak inhibition, 100–249 μm denotes moderate inhibition, 10–99 μm good inhibition, 0.1–9 μm potent inhibition, and <0.1 μm very potent inhibition. […] Our boronated D-galactose 7 represents a novel lead in glycosidase inhibition.
The glycosidases screened are the following: rice α-glucosidase, yeast α-glucosidase, Bacillus α-glucosidase, rat intestinal maltase α-glucosidase, almond β-glucosidase, bovine liver β-glucosidase, coffee beans α-galactosidase, bovine liver β-galactosidase, Jack bean α-mannosidase, snail β-mannosidase, Penicillium decumbens α-L-rhamnosidase, bovine kidney α-L-fucosidase, Eschierichia coli β-glucuronidase, bovine liver β-glucuronidase, porcine kidney trehalase, Aspergillus niger amyloglucosidase, and bovine kidney N-acetyl-β-glucosaminidase. The disease areas for each glycosidase are summarized in [1].
The enzymes α-glucosidase (from yeast), β-glucosidases (from almond and bovine liver), α-galactosidase (from coffee beans), β-galactosidase (from bovine liver), α-mannosidase (from Jack bean), β-mannosidase (from snail), α-L-rhamnosidase (from Penicillium decumbens), α-L-fucosidase (from bovine kidney), trehalase (from porcine kidney), β-glucuronidases (from E. coli and bovine liver), amyloglucosidase (from A. niger), para-nitrophenyl glycosides, and various disaccharides were purchased from Sigma-Aldrich Co.
Brush border membranes were prepared from the rat small intestine according to the method of Kessler et al. and were assayed at pH 6.8 for rat intestinal maltase using maltose. For rat intestinal maltase, porcine kidney trehalase, and A. niger amyloglucosidase activities, the reaction mixture contained 25 mM maltose and the appropriate amount of enzyme, and the incubations were performed for 10–30 min at 37 °C. The reaction was stopped by heating at 100 °C for 3 min. After centrifugation (600 g; 10 min), the resulting reaction mixture was added to the Glucose CII-test Wako (Wako Pure Chemical Ind., Osaka, Japan). The absorbance at 505 nm was measured to determine the amount of the released D-glucose. Other glycosidase activities were determined using an appropriate para-nitrophenyl glycoside as substrate at the optimum pH of each enzyme. The reaction mixture contained 2 mM of the substrate and the appropriate amount of enzyme. The reaction was stopped by the addition of 400 mM Na2CO3. The released para-nitrophenol was measured spectrometrically at 400 nm. All reactions run in methanol.

[2] = system: ADDP (Cis Res Ovarian) cell line; test: Cancer screening (MTT growth inhibition), ADDP; type: cell-based
Description: (§1) All test agents were prepared as stock solutions (20 mM) in dimethyl sulfoxide (DMSO) and stored at −20 °C. Cell lines used in the study included: HT29 (colorectal carcinoma), U87 and SJ-G2 (glioblastoma), MCF-7 (breast carcinoma), A2780 (ovarian carcinoma), H460 (lung carcinoma), A431 (skin carcinoma), Du145 (prostate carcinoma), BE2-C (neuroblastoma), MiaPaCa-2 (pancreatic carcinoma), SMA560 (spontaneous murine astrocytoma), and ADDP (Cis Res Ovarian), together with one non-tumor-derived normal breast cell line (MCF10A). All cell lines were incubated in a humidified atmosphere with 5 % CO2 at 37 °C. […]
(§2) Growth inhibition was determined by plating cells in duplicate in medium (100 µL) at a density of 2500–4000 cells per well in 96-well plates. […] After 72 h of drug exposure, growth inhibitory effects were evaluated using the (3-(4,5-dimethyltiazol-2-yl)-2,5-diphenyltetrazolium bromide) (MTT) assay and absorbance read at 540 nm. The percentage growth inhibition was calculated at a fixed concentration of 25 µM, based on the difference between the optical density values on day 0 and those at the end of drug exposure. Each data point is the mean ± the standard error of the mean (SEM) calculated from three replicates, which were performed on separate occasions and in separate cell line passages.

[3] = system: all cell lines (cancer cell lines and normal cell line); test: Cancer screening, all cell lines; type: cell-based; conditions: all cancer cell lines and the normal cell line
Description: as §1, §2

Solubility in water = type: physicochemical
[4] = at 100 μM, in methanol, read-out: inhibition %
[5] = at 100 μM, read-out: NI: No inhibition

Compound	GI50 [3]	solubility in water (Solubility in water)	inhibition at 100 µM [1, 4]	inhibition at 100 µM [1, 5]	also measured
OCC1OC(O)C(O)C(B(O)O)C1O [Compound 7, 3-Boronic-3-Deoxy-D-galactose]	> 50 µM	soluble in water			inhibition at 1000 µM ([1]; at 1000 μM, in methanol, read-out: inhibition %): 32.4%; inhibition at 1000 µM ([1]; at 1000 μM, read-out: NI: No inhibition): < 50%; inhibition at 25 µM ([2]; 25 µM of drug, 72 h, MTT): 2%; GI50 ([2]; dose response, unit from table title): > 50 µM
CC1(C)OCC(C2OC3OC(C)(C)OC3C2[B-]23OCC[NH+]2CCO3)O1 [Compound 6, 3-Deoxy-3-Boronodiethanolamine-1,2:5,6-Di-O-isopropylidene-α-D-galactofuranose]	> 50 µM	soluble in water	12.4%	< 50%	
N[C@@H](Cc1ccc(B(O)O)cc1)C(=O)O [BPA, 4-borono-L-phenylalanine]			7.4%	< 50%	
N[C@@H](Cc1ccc(B(O)O)cc1)C(=O)O [^10B-BPA]					NI: No inhibition ([1]; at 100 μM): NI (No inhibition (less than 50% inhibition at 100 μM)); inhibition % ([1]; at 100 μM, in methanol): 0%
Borocaptate sodium [BSH]					NI: No inhibition ([1]; at 1000 μM): NI (No inhibition (less than 50% inhibition at 1000 μM)); inhibition % ([1]; at 1000 μM, in methanol): 19.6%
